# Reference: patent US11702404B2, “GLP-1R modulating compounds” (priority 2019, dated 2023)
# How the values were obtained:
# [1] = molecular target: GLP-1R (Homo sapiens, UniProt P43220); test: GLP-1R activation: cAMP increase in CHO cells stably expressing GLP-1R; type: cell-based; conditions: cAMP increase, CHO cells stably expressing GLP-1R, 10 point dose response, 30 minutes incubation; read-out: EC50
# [2] = Microsomal stability, human liver microsomes (predicted hepatic clearance); conditions: predicted from in vitro microsomal stability data
# Sequence of GLP-1R (P43220 24-463): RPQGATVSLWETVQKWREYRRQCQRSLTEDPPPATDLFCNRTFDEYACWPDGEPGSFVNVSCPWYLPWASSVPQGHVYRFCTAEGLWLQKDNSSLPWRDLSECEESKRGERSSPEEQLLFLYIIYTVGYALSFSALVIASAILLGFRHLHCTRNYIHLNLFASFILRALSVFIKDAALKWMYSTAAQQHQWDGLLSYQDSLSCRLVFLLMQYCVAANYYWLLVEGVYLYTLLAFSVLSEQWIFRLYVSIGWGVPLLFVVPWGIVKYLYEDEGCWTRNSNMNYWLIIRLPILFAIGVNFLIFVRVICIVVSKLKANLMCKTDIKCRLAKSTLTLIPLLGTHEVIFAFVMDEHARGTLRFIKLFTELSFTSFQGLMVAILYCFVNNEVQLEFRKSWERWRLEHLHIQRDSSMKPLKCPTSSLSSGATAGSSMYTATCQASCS
SMILES,EC50 [1] [nM],Predicted Hepatic Clearance (Pred. Cl.) [2] [mL/min/kg]
"N#Cc1ccc(COc2cccc(-c3cc(F)c(Cc4nc5cc(F)c(C(=O)O)cc5n4C[C@@H]4CCO4)cc3F)n2)c(F)c1 [Example 219, (S)-2-(4-(6-((4-cyano-2-fluorobenzyl)oxy)pyridin-2-yl)-2,5-difluorobenzyl)-5-fluoro-1-(oxetan-2-ylmethyl)-1H-benzo[d]imidazole-6-carboxylic acid]",0.69,2.83
COCCn1c(Cc2cc(F)c(-c3cccc(OCc4ccc(C#N)cc4)n3)cc2F)nc2c(F)cc(C(=O)O)cc21 [Example 799],135,2.67
N#Cc1ccc(COc2ncc(F)c(-c3cc(F)c(Cc4nc5c(F)cc(C(=O)O)cc5n4C[C@@H]4CCO4)cc3F)n2)c(F)c1 [Example 886],0.18,5.83
"N#CCC1(Cn2c(Cc3cc(F)c(-c4ccnc(OCc5ccc(C#N)cc5F)n4)cc3F)nc3ccc(C(N)=O)nc32)CC1 [Example 599, 2-(4-(2-((4-cyano-2-fluorobenzyl)oxy)pyrimidin-4-yl)-2,5-difluorobenzyl)-3-((1-(cyanomethyl)cyclopropyl)methyl)-3H-imidazo[4,5-b]pyridine-5-carboxamide]",0.98,12.3
N#CCC1(Cn2c(Cc3cc(F)c(-c4cccc(OCc5ccc(C(F)F)cc5F)n4)cc3F)nc3ccc(C(=O)O)cc32)CC1 [Example 718],0.05,1.83
"N#CCC1(Cn2c(Cc3ccc(-c4ccnc(OCc5ccc(Cl)cc5F)n4)cc3F)nc3ccc(C(=O)O)cc32)CC1 [Example 79, 2-(4-(2-((4-chloro-2-fluorobenzyl)oxy)pyrimidin-4-yl)-2-fluorobenzyl)-1-((1-(cyanomethyl)cyclopropyl)methyl)-1H-benzo[d]imidazole-6-carboxylic acid]",1.04,8.83
"COCCn1c(Cc2ccc(-c3cccc(OCC(=O)c4ccccc4)n3)cc2F)nc2ccc(C(=O)O)cc21 [Example 214, 2-(2-fluoro-4-(6-(2-oxo-2-phenylethoxy)pyridin-2-yl)benzyl)-1-(2-methoxyethyl)-1H-benzo[d]imidazole-6-carboxylic acid]",745,16.3
"N#Cc1ccc(COc2nccc(-c3ccc(Cc4nc5c(F)cc(C(=O)O)cc5n4CC4(CF)CC4)cc3F)n2)c(F)c1 [Example 299, 2-(4-(2-((4-cyano-2-fluorobenzyl)oxy)pyrimidin-4-yl)-3-fluorobenzyl)-4-fluoro-1-((1-(fluoromethyl)cyclopropyl)methyl)-1H-benzo[d]imidazole-6-carboxylic acid]",0.4,5.17
"COCCn1c(Cc2ccc(-c3ccnc(OCc4ccc(C#N)cc4OC)n3)cc2F)nc2ccc(C(=O)O)cc21 [Example 112, 2-(4-(2-((4-cyano-2-methoxybenzyl)oxy)pyrimidin-4-yl)-2-fluorobenzyl)-1-(2-methoxyethyl)-1H-benzo[d]imidazole-6-carboxylic acid]",3.76,9.17
"COCCn1c(Cc2c(F)cc(-c3ncc(F)c(OCc4ccc(C#N)cc4F)n3)c(F)c2F)nc2ccc(C(=O)O)cc21 [Example 124, 2-(4-(4-((4-cyano-2-fluorobenzyl)oxy)-5-fluoropyrimidin-2-yl)-2,3,6-trifluorobenzyl)-1-(2-methoxyethyl)-1H-benzo[d]imidazole-6-carboxylic acid]",0.67,3.17
"COCCn1c(Cc2c(F)cc(-c3ccnnc3OCc3ccc(C#N)cc3F)cc2F)nc2ccc(C(=O)O)cc21 [Example 103, 2-[[4-[3-[(4-cyano-2-fluoro-phenyl)methoxy]pyridazin-4-yl]-2,6-difluoro-phenyl]methyl]-3-(2-methoxyethyl)benzimidazole-5-carboxylic acid]",4980,5.17
"COCCn1c(Cc2ccc(-c3cccc(OCc4ccc(C#N)cc4F)n3)cc2S(C)(=O)=O)nc2ccc(C(=O)O)cc21 [Example 387, 2-(4-(6-((4-cyano-2-fluorobenzyl)oxy)pyridin-2-yl)-2-(methylsulfonyl)benzyl)-1-(2-methoxyethyl)-1H-benzo[d]imidazole-6-carboxylic acid]",504,8.3
N#Cc1ccc(COc2cccc(-c3cc(F)c(Cc4nc5ccc(C(=O)O)cc5n4CC45CCC(CO4)C5)cc3F)n2)c(F)c1 (stereo not shown) [Example 738],1.87,9.33
COCCn1c(Cc2ccc(-c3cccc(OCc4ccc(C#CC(C)(C)O)cc4F)n3)cc2F)nc2ccc(C(=O)O)cc21 [Example 841],164,6.17
"O=C(O)c1ccc2nc(Cc3cc(F)c(-c4cccc(OCc5ccc(C(F)(F)F)cc5)n4)cc3F)n(C[C@@H]3CCO3)c2c1 [Example 517, (S)-2-(2,5-difluoro-4-(6-((4-(trifluoromethyl)benzyl)oxy)pyridin-2-yl)benzyl)-1-(oxetan-2-ylmethyl)-1H-benzo[d]imidazole-6-carboxylic acid]",0.06,<1.83
"CCn1nncc1Cn1c(Cc2ccc(-c3cccc(OCc4ccc(C#N)cc4F)n3)cc2F)nc2ccc(C(=O)O)cc21 [Example 370, 2-(4-(6-((4-cyano-2-fluorobenzyl)oxy)pyridin-2-yl)-2-fluorobenzyl)-1-((l-ethyl-1H-1,2,3-triazol-5-yl)methyl)-1H-benzo[d]imidazole-6-carboxylic acid]",3.34,6.7
"COCCn1c(Cc2ccc(-c3cccc(OCc4ccc(C#N)cc4F)n3)cc2C#Cc2ccccc2)nc2ccc(C(=O)O)cc21 [Example 237, 2-(4-(6-((4-cyano-2-fluorobenzyl)oxy)pyridin-2-yl)-2-(phenylethynyl)benzyl)-1-(2-methoxyethyl)-1H-benzo[d]imidazole-6-carboxylic acid]",19.2,11.2
"N#Cc1ccc(COc2cccc(-c3ccc(Cc4nc5cc(C(=O)O)ccc5n4CC4(CF)CC4)c(F)c3)n2)c(F)c1 [Example 552, 2-(4-(6-((4-Cyano-2-fluorobenzyl)oxy)pyridin-2-yl)-2-fluorobenzyl)-1-((1-(fluoromethyl)cyclopropyl)methyl)-1H-benzo[d]imidazole-5-carboxylic acid]",18.1,<1.83
N#Cc1ccc(COc2cccc(-c3cc(F)c(Cc4nc5ccc(C(=O)O)cc5n4Cc4nccs4)cc3F)n2)c(F)c1 [Example 707],4.81,4
"COCCn1c(Cc2ccc(-c3cccc(OCc4ccc(C#N)cc4OCC(F)F)n3)cc2F)nc2ccc(C(=O)O)cc21 [Example 245, 2-(4-(6-((4-cyano-2-(2,2-difluoroethoxy)benzyl)oxy)pyridin-2-yl)-2-fluorobenzyl)-1-(2-methoxyethyl)-1H-benzo[d]imidazole-6-carboxylic acid]",140,4.5
